Structures are written as SMILES. Where a name gives a salt, the structure may show the parent alone. A value given as a limit tells only on which side of the number the result lay.

One assay has as its target T1, PI3K-beta (Homo sapiens, UniProt P42338).
T1 construct: made in house
Description: HTRF in vitro profiling assay for PI3K inhibition (beta isoform). The settings on record: PI3K-beta enzyme pIC50 range, 200 pM enzyme, 100 uM ATP, 10 uM PIP2, 150 mM NaCl, corrected pIC50, read-out: PI3K-b Enz Activity. Format: biochemical. The source says:
HTRF In Vitro Profiling Assays for PI3K Inhibition
The PI3-Kinase profiling assays were developed to measure the compound-dependent inhibition of the alpha, beta, delta, and gamma isoforms of PI3K in an in vitro catalytic assay. This assay was developed and optimized from a kit produced by Upstate (Millipore catalog #33-017). Briefly, this procedure utilizes a pre-formed HTRF (Homogeneous Time-Resolved Fluorescence energy transfer) complex between four binding partners: 1) biotinylated PIP3, 2) GST tagged pleckstrin homology (PH) domain, 3) Europium labeled anti-GST monoclonal antibody, and 4) Streptavidin-Allophycocyanin (APC). The native PIP3 produced by PI 3-Kinase activity displaces biotin-PIP3 from the PH domain, resulting in the dissociation of the HTRF complex and a decrease in the fluorescence signal. The format of this assay is the same for all 4 isoforms of PI3K; the differences lie in the concentration of enzyme used to achieve the most robust signal. The alpha and delta assays are run at 400 pM enzyme; the beta assay is at 200 pM enzyme and the gamma assay is run at 1 nM enzyme. In addition, the alpha, beta and delta assays are run with 150 mM NaCl while the gamma assay is run in the absence of NaCl. The ATP concentration is 100 uM in the alpha, beta, and delta assays and 15 uM ATP in the gamma assay. All reactions are run at 10 uM PIP2
Compounds are serially diluted (3-fold in 100% DMSO) across a 384-well polypropylene mother plate from column 1 to column 12 and column 13 to column 24, to yield 11 concentrations for each test compound. Columns 6 and 18 contain only DMSO. Once titrations are made, […] is transferred to a 384-well low-volume assay plate (Greiner 784076). This assay plate contains three pharmacological controls (known PI3K inhibitors) and 3 assay controls: (1) Enzyme without inhibitor; (2) Buffer minus enzyme, and (3) Buffer minus enzyme plus native PIP3. DMSO is stamped into all wells of columns 6 and 18. PIP3 is added at 40 μM in 1× Reaction buffer (1 μL of 200 μM PIP3) to alternating rows of column 18 (wells 18 B, D, F, H, J, L, N, P). The no-enzyme control reactions are run in wells 18 A, C, E, G, I, K, M, O (0.1 μL of 100% DMSO).
The PI3-Kinase profiling assay was optimized using the HTRF kit provided by Upstate (Millipore). The assay kit contains seven reagents: 1) 4× Reaction Buffer; 2) native PIP2 (substrate); 3) Stop A (EDTA); 4) Stop B (Biotin-PIP3); 5) Detection Mix A (Streptavidin-APC); 6) Detection Mix B (Eu-labeled Anti-GST plus GST-tagged PH-domain); 7) Detection Mix C (KF). In addition, the following items were obtained or purchased: PI3Kinase (prepared by GSK BR&AD), dithiothreitol (Sigma, D-5545), Adenosine-5′-triphosphate (ATP, Teknova cat. # A0220), native PIP3 (1,2-dioctanoyl-sn-glycero-3-[phosphoinositil-3,4,5-triphosphate]tetraammonium salt (Avanti polar lipids, 850186P), DMSO (Sigma, 472301).
PI3Kinase Reaction Buffer is prepared by diluting the stock 1:4 with de-ionized water. Freshly prepared DTT is added at a final concentration of 5 mM on the day of use. Enzyme addition and compound pre-incubation are initiated by the addition of 2.5 μL of PI3K (at twice its final concentration) in 1× reaction buffer to all wells using a Multidrop Combi. Plates are incubated at room temperature for 15 minutes. Reactions are initiated by addition of 2.5 μL of 2× substrate solution (PIP2 and ATP in 1× reaction buffer) using a Multidrop Combi. Plates are incubated at room temperature for one hour. Reactions are quenched by the addition of 2.5 μL of stop solution (Stop A and Stop B pre-mixed at a ratio of 5:1, respectively) to all wells using the Multidrop Combi. […]
For orientation: In TR-FRET formats the signal depends on donor and acceptor labels being close together.

Assay [1] has as its system pAKT(Ser473) in MDA-MB-468 cells. Description: pAKT(Ser473) assay in MDA-MB-468 cells. Format: cell-based. The conditions noted are these: Homo sapiens, 0.5 h, compound treatment 30 minutes, MSD ELISA phospho AKT(Ser473), given as ranges, read-out: Cell Activity—pAKT IC50 in MDA-MB-468. Here is the method: pAKT(Ser473) Assay in MDA-MB-468 Cells
MDA-MB-468 cells were plated in 384-well flat clear bottom tissue culture plates (Corning #3701) at a density of 5000 cells per 0.057 cm2 in 48 ul of RPMI 1640 media supplemented with 10% fetal bovine serum (FBS). Cells were seeded with a Wellmate liquid handler (Matrix). Columns 1 through 23 were plated with cells and column 24 contained media alone. Cells were incubated at 37° C. with 5% CO2 for approximately 16-20 hours. Duplicate compound plates were prepared in 384-well polypropylene V-Bottom plates (Greiner #781280).
Compound titrations were made across the columns (A1-A20). 20 ul of compound was added to the first column and diluted into a 20 point curve with dimethylsulfoxide (DMSO, Thermo #TS2064) using a 2-fold dilution factor with a liquid handling robot (Hamilton). Columns 22 through 24 contained DMSO alone. Titrations were diluted 682-fold for compound treatment with 4 ul of compound added to 105 ul of RPMI media. Two ul of the diluted compound was added to the cell plates containing 48 ul of media using a multimek robot (Beckman Coulter). Final DMSO concentrations were 0.15%. Cells were treated with compound for 30 minutes at 37° C. with 5% CO2.
Following incubation, media was aspirated from dosed cell plates using an ELx405 plate washer (Bio-Tek) and 25 ul of 4° C. Meso Scale Discovery (MSD) lysis buffer with the addition of protease and phosphatase inhibitors (supplied in MSD kit #N31CB-1) was added to each well using a multidrop combi (Thermo). Precoated 4-spot per well MSD ELISA plates coated with total and phospho AKT(Ser473) antibody and BSA (supplied in kit) were blocked for 1 hour at room temperature with 35 ul per well of 1× MSD wash buffer+3% BSA (supplied in kit).
Blocked plates were washed 4 times with 100 ul per well of 1× Tris wash buffer (supplied in MSD kit) using an Elx405 plate washer (Bio-Tek). To each well, 20 ul of cell lysate was added using a multimek robot (Beckman Coulter) and the plate incubated at 4° C. overnight (˜12-24 hours). Following incubation, the ELISA plates were washed 4 times (100 ul/well) with 1× Tris wash buffer. Twenty microliters per well of 1× detection antibody (supplied in MSD kit) was added using a multidrop combi (Thermo), followed by a 2 hour incubation at room temperature. Detection antibody was aspirated and the plates washed 4 times (100 ul/well) with 1× Tris wash buffer. Read Buffer (supplied in MSD kit) was added at 1× (35 ul/well) at room temperature using a multidrop (Thermo). Relative luminescence units (RLU) were determined using a SECTOR™ Imager 6000 with MSD Workbench Software.
Concentration Response Curves for pAKT(Ser473):
For analysis of the pAKT(Ser473) concentration response curves, the data was normalized using Phospho AKT values divided by the sum of corresponding Total AKT and Phospho AKT values. The normalized values are plotted as the percent of the DMSO-treated control values on the corresponding plate. To determine IC50 values, the data is fit to a 4 parameter nonlinear sigmoidal dose response (variable slope) using GraphPad Prism version 4 for Windows, (GraphPad Software, San Diego Calif. USA). Criteria for curve fitting and IC50 determination include that the IC50 values from duplicate runs must be within 2 to 3-fold of each other, the Y min must be less than or equal to 30% of the DMSO-treated control and the Y max must range between 80-120%. Any data point equal to or greater than 40% of the curve was not utilized.

T1 sequence (P42338 whole entry): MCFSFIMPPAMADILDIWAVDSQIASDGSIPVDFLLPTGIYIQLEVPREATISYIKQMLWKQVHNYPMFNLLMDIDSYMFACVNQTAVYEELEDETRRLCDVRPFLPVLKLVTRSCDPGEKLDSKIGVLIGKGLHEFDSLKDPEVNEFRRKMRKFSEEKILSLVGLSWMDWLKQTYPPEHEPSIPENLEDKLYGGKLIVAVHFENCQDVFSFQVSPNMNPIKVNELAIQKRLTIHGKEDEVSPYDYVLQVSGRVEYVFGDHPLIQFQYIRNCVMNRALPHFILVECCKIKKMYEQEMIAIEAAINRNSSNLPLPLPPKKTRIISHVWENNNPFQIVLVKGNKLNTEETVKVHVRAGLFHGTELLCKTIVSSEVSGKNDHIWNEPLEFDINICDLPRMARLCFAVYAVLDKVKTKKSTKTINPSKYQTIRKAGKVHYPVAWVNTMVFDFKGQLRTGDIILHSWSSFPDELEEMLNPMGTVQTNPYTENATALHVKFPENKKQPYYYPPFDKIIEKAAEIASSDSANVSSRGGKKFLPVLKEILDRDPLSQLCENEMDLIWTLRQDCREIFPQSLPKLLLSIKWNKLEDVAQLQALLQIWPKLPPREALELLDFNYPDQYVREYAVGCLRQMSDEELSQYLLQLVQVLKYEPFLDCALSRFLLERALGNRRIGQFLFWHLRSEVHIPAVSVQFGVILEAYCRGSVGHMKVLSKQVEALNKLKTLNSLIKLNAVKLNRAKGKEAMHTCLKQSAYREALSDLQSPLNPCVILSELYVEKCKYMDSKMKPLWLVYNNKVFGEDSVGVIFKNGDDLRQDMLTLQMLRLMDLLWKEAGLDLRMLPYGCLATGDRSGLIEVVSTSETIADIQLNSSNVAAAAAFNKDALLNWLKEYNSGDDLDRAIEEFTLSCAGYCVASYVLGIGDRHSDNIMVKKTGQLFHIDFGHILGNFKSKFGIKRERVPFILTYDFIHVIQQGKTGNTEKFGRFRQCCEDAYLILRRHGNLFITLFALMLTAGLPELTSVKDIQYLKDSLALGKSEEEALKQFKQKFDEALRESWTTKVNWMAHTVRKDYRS
T1 sequence (P27986 whole entry partner): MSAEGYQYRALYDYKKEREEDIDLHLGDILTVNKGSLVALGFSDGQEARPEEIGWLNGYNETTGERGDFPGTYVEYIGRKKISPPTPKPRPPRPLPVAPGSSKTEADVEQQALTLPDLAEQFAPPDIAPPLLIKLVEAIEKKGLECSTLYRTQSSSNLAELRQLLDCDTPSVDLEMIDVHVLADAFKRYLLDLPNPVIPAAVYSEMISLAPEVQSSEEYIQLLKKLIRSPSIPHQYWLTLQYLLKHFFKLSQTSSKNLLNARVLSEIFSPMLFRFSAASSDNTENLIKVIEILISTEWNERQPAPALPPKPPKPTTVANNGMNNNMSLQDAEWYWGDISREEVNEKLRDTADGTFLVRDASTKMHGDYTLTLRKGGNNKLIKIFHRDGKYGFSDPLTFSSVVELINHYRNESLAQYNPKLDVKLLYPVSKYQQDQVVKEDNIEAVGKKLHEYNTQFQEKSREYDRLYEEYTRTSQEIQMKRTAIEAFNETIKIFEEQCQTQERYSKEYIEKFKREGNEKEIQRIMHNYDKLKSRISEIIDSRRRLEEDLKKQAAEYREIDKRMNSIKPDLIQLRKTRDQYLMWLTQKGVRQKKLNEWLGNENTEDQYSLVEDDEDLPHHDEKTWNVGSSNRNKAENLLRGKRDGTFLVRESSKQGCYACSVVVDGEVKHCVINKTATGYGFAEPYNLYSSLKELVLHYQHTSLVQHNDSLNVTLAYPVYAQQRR

For the molecule `CC1CN(c2cc(O)n3nc(C(F)(F)F)c(Cc4cccc(Cl)c4Cl)c3n2)CCO1` (centres unmarked) [Example 8, 3-(2,3-dichlorobenzyl)-5-(2-methylmorpholino)-2-(trifluoromethyl)pyrazolo[1,5-a]pyrimidin-7-ol], the IC50 on PI3K-beta lay within 1.26 to 10 nM; in assay [1], 6000 to 10000 nM.
In the same order, the values of `Oc1cc(C2CCOCC2)nc2c(Cc3cccc(Cl)c3Cl)c(C(F)(F)F)nn12` [Example 9, 3-(2,3-dichlorobenzyl)-5-(tetrahydro-2H-pyran-4-yl)-2-(trifluoromethyl)pyrazolo[1,5-a]pyrimidin-7-ol] are 1.26 to 10 nM and greater than 20000 nM.
For `Cc1c(Cc2cnn3c(O)cc(-c4ccncc4)nc23)cccc1C(F)(F)F` [Example 13, 3-(2-methyl-3-(trifluoromethyl)benzyl)-5-(pyridin-4-yl)pyrazolo[1,5-a]pyrimidin-7-ol], the values for the IC50 (at PI3K-beta; in assay [1]) were 1.26 to 10 nM and 1000 to 5000 nM, respectively.
For `CCc1nn2c(O)cc(-c3ccncc3)nc2c1Cc1cccc(Cl)c1Cl` [Example 31, 3-(2,3-dichlorobenzyl)-2-ethyl-5-(pyridin-4-yl)pyrazolo[1,5-a]pyrimidin-7-ol], the IC50 is 0.126 to 1 nM on PI3K-beta and greater than 20000 nM in assay [1].
Regarding `Cc1c(Cc2cnn3c(-c4cn[nH]c4)cc(N4CCOCC4)nc23)cccc1C(F)(F)F` [Example 48, 4-(3-(2-methyl-3-(trifluoromethyl)benzyl)-7-(1H-pyrazol-4-yl)pyrazolo[1,5-a]pyrimidin-5-yl)morpholine], the IC50 was 126 to 1260 nM on PI3K-beta and greater than 20000 nM in assay [1].
For `Cc1nn2c(NC(N)=O)cc(N3CCOCC3)nc2c1Cc1cccc(C(F)(F)F)c1C` [Example 16, 1-(2-methyl-3-(2-methyl-3-(trifluoromethyl)benzyl)-5-morpholinopyrazolo[1,5-a]pyrimidin-7-yl)urea] the same measures were 12.6 to 100 nM and greater than 20000 nM.
In the same order, the values of `Cc1nn2c(N)cc(N3CCOCC3)nc2c1Cc1cccc2ccccc12` [Example 27, 2-methyl-5-morpholino-3-(naphthalen-1-ylmethyl)pyrazolo[1,5-a]pyrimidin-7-amine] are 12.6 to 100 nM and less than 1000 nM.
For `Cc1nn2c(-c3nn[nH]n3)cc(N3CCOCC3)nc2c1Cc1cccc2ccccc12` [Example 47, 4-(2-methyl-3-(naphthalen-1-ylmethyl)-7-(1H-tetrazol-5-yl)pyrazolo[1,5-a]pyrimidin-5-yl)morpholine] the same measures were 12.6 to 100 nM and 1000 to 5000 nM.
Turning to `COc1nn2c(O)cc(-c3ccncc3)nc2c1Cc1cccc(Cl)c1Cl` [Example 35, 3-(2,3-dichlorobenzyl)-2-methoxy-5-(pyridin-4-yl)pyrazolo[1,5-a]pyrimidin-7-ol], the IC50 was in the range of 1.26 to 10 nM at PI3K-beta and 11000 to 20000 nM in assay [1].
For `Cc1nn2c(O)cc(C3CCOCC3)nc2c1Cc1cccc(C(F)(F)F)c1C` [Example 4, 2-methyl-3-(2-methyl-3-(trifluoromethyl)benzyl)-5-(tetrahydro-2H-pyran-4-yl)pyrazolo[1,5-a]pyrimidin-7-ol] the same measures were 1.26 to 10 nM and 6000 to 10000 nM.
In the same order, the values of `Nc1nn2c(O)cc(C3CCOCC3)nc2c1Cc1cccc(Cl)c1Cl` [Example 26, 2-amino-3-(2,3-dichlorobenzyl)-5-(tetrahydro-2H-pyran-4-yl)pyrazolo[1,5-a]pyrimidin-7-ol hydrochloride] are 1.26 to 10 nM and 1000 to 5000 nM.
As for `Cc1nn2c(-c3ncc[nH]3)cc(N3CCOCC3)nc2c1Cc1cccc2ccccc12` [Example 43, 4-(7-(1H-imidazol-2-yl)-2-methyl-3-(naphthalen-1-ylmethyl)pyrazolo[1,5-a]pyrimidin-5-yl)morpholine], the IC50 at PI3K-beta was 1.26 to 10 nM; in assay [1], less than 1000 nM.
For `Nc1nn2c(O)cc(N3CCOCC3)nc2c1Cc1cccc2ccccc12` [Example 23, 2-amino-5-morpholino-3-(naphthalen-1-ylmethyl)pyrazolo[1,5-a]pyrimidin-7-ol] the same measures were 0.126 to 1 nM and less than 1000 nM.
As for `Cc1nn2c(O)cc(N3CCOCC3)nc2c1Cc1cccc(C(F)(F)F)c1C` [Example 1, 2-methyl-3-(2-methyl-3-(trifluoromethyl)benzyl)-5-morpholinopyrazolo[1,5-a]pyrimidin-7-ol], the IC50 was in the range of 0.126 to 1 nM at PI3K-beta and 1000 to 5000 nM in assay [1].
With `Oc1nn2c(O)cc(-c3ccncc3)nc2c1Cc1ccccc1Cl` [Example 21, 3-(2-chlorobenzyl)-5-(pyridin-4-yl)pyrazolo[1,5-a]pyrimidine-2,7-diol], the IC50 at PI3K-beta is 126 to 1260 nM; in assay [1], greater than 20000 nM.
In the same order, the values of `Cc1nn2c(O)cc(N3CCOCC3=O)nc2c1Cc1cccc(C(F)(F)F)c1C` [Example 3, 4-(7-hydroxy-2-methyl-3-(2-methyl-3-(trifluoromethyl)benzyl)pyrazolo[1,5-a]pyrimidin-5-yl)morpholin-3-one] are 126 to 1260 nM and greater than 20000 nM.
